In PubChem BioAssay AID248 (DTP/NCI, 2004):
Where “and” joins values, the source holds several entries; their conditions need not be identical. Equal entries are not always repeated. Toxic doses and inconclusive results are not listed.

System: L1210 leukemia ip in BDF1 mice, survival T/C
Assay: NCI In Vivo Anticancer Drug Screen. Data for tumor model L1210 Leukemia (intraperitoneal) in B6D2F1 (BDF1) mice
Conditions: endpoint: mean survival time, higher = longer survival
Outline: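 Value reflects the ratio of survival in compound-treated mice to survival in vehicle-treated controls, with both groups carrying the same transplanted tumor.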

[1] = dose: 50.0 mg/kg/injection, schedule: Q01DX009 (ip), vehicle: Klucel (hydroxypropylcellulose) (HPC)
[2] = dose: 100.0 mg/kg/injection, schedule: Q01DX009 (ip), vehicle: Klucel (hydroxypropylcellulose) (HPC)
[3] = dose: 100.0 mg/kg/injection, schedule: Q04DX003 (ip), vehicle: Klucel (hydroxypropylcellulose) (HPC)
[4] = dose: 200.0 mg/kg/injection, schedule: Q01DX009 (ip), vehicle: Klucel (hydroxypropylcellulose) (HPC)
[5] = dose: 200.0 mg/kg/injection, schedule: Q04DX003 (ip), vehicle: Klucel (hydroxypropylcellulose) (HPC)
[6] = dose: 400.0 mg/kg/injection, schedule: Q04DX003 (ip), vehicle: Klucel (hydroxypropylcellulose) (HPC)
[7] = dose: 100.0 mg/kg/injection, schedule: Q01DX001 (ip), vehicle: carboxymethylcellulose (CMC)
[8] = dose: 200.0 mg/kg/injection, schedule: Q01DX001 (ip), vehicle: carboxymethylcellulose (CMC)
[9] = dose: 400.0 mg/kg/injection, schedule: Q01DX001 (ip), vehicle: carboxymethylcellulose (CMC)
[10] = dose: 100.0 mg/kg/injection, schedule: Q01DX001 (ip), vehicle: saline
[11] = dose: 200.0 mg/kg/injection, schedule: Q01DX001 (ip), vehicle: saline
[12] = dose: 400.0 mg/kg/injection, schedule: Q01DX001 (ip), vehicle: saline
[13] = dose: 100.0 mg/kg/injection, schedule: Q01DX009 (ip), vehicle: saline with Tween-80
[14] = dose: 200.0 mg/kg/injection, schedule: Q01DX009 (ip), vehicle: saline with Tween-80
[15] = dose: 400.0 mg/kg/injection, schedule: Q01DX009 (ip), vehicle: saline with Tween-80
[16] = dose: 100.0 mg/kg/injection, schedule: Q04DX003 (ip), vehicle: saline
[17] = dose: 100.0 mg/kg/injection, schedule: Q04DX002 (ip), vehicle: Klucel (hydroxypropylcellulose) (HPC)
[18] = dose: 50.0 mg/kg/injection, schedule: Q01DX001 (ip), vehicle: saline

Compound: CCCC(/C=N\NC(=O)c1ccc[n+](C)c1)CC (configuration not stated)
- T/C (dose: 50.0 mg/kg/injection, schedule: Q01DX009 (ip), vehicle: saline): 103 % of control
- T/C (dose: 100.0 mg/kg/injection, schedule: Q01DX009 (ip), vehicle: saline): 103 % of control
- T/C (dose: 200.0 mg/kg/injection, schedule: Q01DX009 (ip), vehicle: saline): 100 % of control

Compound: CCC1(N)COC(c2ccccc2)OC1 (configuration not stated)
- T/C [1]: 109 % of control
- T/C [2]: 88 % of control

Compound: CCCCCCCCCCCCCCC1CC(=O)OC1=O (configuration not stated)
- T/C [2]: 92 % of control
- T/C [3]: 86 % of control
- T/C [4]: 86 % of control
- T/C [5]: 88 % of control
- T/C [6]: 93 % of control

Compound: CC1Cc2c(n[nH]c2CC2CC(=O)NC(=O)C2)C(C)C1 (configuration not stated)
- T/C [7]: 100 % of control
- T/C [8]: 97 % of control
- T/C [9]: 101 % of control

Compound: CC(=O)NCC(O)c1ccccc1 (configuration not stated)
- T/C [10]: 94 % of control
- T/C [11]: 100 % of control
- T/C [12]: 91 % of control

Compound: COc1ccc(N=C(N)NC#N)cc1
- T/C [2]: 100 % of control
- T/C [3]: 93 % of control
- T/C [4]: 97 % of control
- T/C [5]: 92 % of control
- T/C [6]: 97 % of control

Compound: O=C(NNc1ccccc1)C(O)C(O)C(O)C(O)CO (configuration not stated)
- T/C [13]: 100 % of control
- T/C [14]: 96 % of control
- T/C [15]: 104 % of control

Compound: Nc1nc2ncc(CNc3ccc(C(=O)NC(CCC(=O)O)C(=O)O)s3)nc2c(=O)[nH]1 (configuration not stated)
- T/C [10]: 95 % of control
- T/C [11]: 101 % of control and 95 % of control
- T/C [12]: 93 % of control and 90 % of control

Compound: COc1ccc(CN2CC(C)N(N)C(C)C2)cc1 (configuration not stated)
- T/C (dose: 100.0 mg/kg/injection, schedule: Q01DX005 (ip), vehicle: saline): 98 % of control

Compound: CN(CCC(=O)c1ccccc1)C(C)(C)C
- T/C [16]: 100 % of control

Compound: CS(=O)(=O)Oc1ccc(Cl)c2ccccc12
- T/C [7]: 98 % of control
- T/C [8]: 101 % of control
- T/C [9]: 95 % of control

Compound: CC(=O)NC(N)=S
- T/C (dose: 25.0 mg/kg/injection, schedule: Q04DX002 (ip), vehicle: Klucel (hydroxypropylcellulose) (HPC)): 108 % of control
- T/C (dose: 50.0 mg/kg/injection, schedule: Q04DX002 (ip), vehicle: Klucel (hydroxypropylcellulose) (HPC)): 108 % of control
- T/C (dose: 50.0 mg/kg/injection, schedule: Q04DX003 (ip), vehicle: Klucel (hydroxypropylcellulose) (HPC)): 97 % of control
- T/C [17]: 108 % of control
- T/C [3]: 103 % of control

Compound: O=C(O)CCCC1OCCO1
- T/C (dose: 100.0 mg/kg/injection, schedule: Q01DX001 (ip), vehicle: saline with Tween-80): 98 % of control
- T/C (dose: 200.0 mg/kg/injection, schedule: Q01DX001 (ip), vehicle: saline with Tween-80): 95 % of control
- T/C (dose: 400.0 mg/kg/injection, schedule: Q01DX001 (ip), vehicle: saline with Tween-80): 101 % of control

Compound: O=C(Nc1ccc2c(c1)OCO2)N1CC1
- T/C (dose: 10.0 mg/kg/injection, schedule: Q01DX009 (ip), vehicle: Klucel (hydroxypropylcellulose) (HPC)): 102 % of control
- T/C (dose: 20.0 mg/kg/injection, schedule: Q01DX009 (ip), vehicle: Klucel (hydroxypropylcellulose) (HPC)): 92 % of control
- T/C (dose: 20.0 mg/kg/injection, schedule: Q04DX003 (ip), vehicle: Klucel (hydroxypropylcellulose) (HPC)): 103 % of control
- T/C (dose: 40.0 mg/kg/injection, schedule: Q04DX003 (ip), vehicle: Klucel (hydroxypropylcellulose) (HPC)): 113 % of control

Compound: O=C(NCCCl)Nc1ccccc1-c1ccccc1
- T/C [3]: 101 % of control
- T/C [5]: 95 % of control
- T/C [6]: 115 % of control

Compound: c1ccc2c3c(ccc2c1)OCN(C12CC4CC(CC(C4)C1)C2)C3
- T/C [16]: 98 % of control
- T/C (dose: 200.0 mg/kg/injection, schedule: Q04DX003 (ip), vehicle: saline): 105 % of control
- T/C (dose: 400.0 mg/kg/injection, schedule: Q04DX003 (ip), vehicle: saline): 89 % of control

Compound: CCCCCCCN1CCC(C(=O)CC)(c2cccc(O)c2)CC1
- T/C (dose: 12.5 mg/kg/injection, schedule: Q01DX009 (ip), vehicle: Klucel (hydroxypropylcellulose) (HPC)): 106 % of control
- T/C (dose: 25.0 mg/kg/injection, schedule: Q01DX009 (ip), vehicle: Klucel (hydroxypropylcellulose) (HPC)): 98 % of control
- T/C [1]: 93 % of control and 87 % of control
- T/C [17]: 93 % of control

Compound: CC1(O)CCCCCC1
- T/C (dose: 50.0 mg/kg/injection, schedule: Q01DX001 (ip), vehicle: carboxymethylcellulose (CMC)): 107 % of control
- T/C [7]: 100 % of control
- T/C [8]: 94 % of control
- T/C [9]: 89 % of control

Compound: CSc1ccccc1NC(=O)c1cccs1
- T/C [17]: 89 % of control
- T/C (dose: 200.0 mg/kg/injection, schedule: Q04DX002 (ip), vehicle: Klucel (hydroxypropylcellulose) (HPC)): 96 % of control
- T/C (dose: 400.0 mg/kg/injection, schedule: Q04DX002 (ip), vehicle: Klucel (hydroxypropylcellulose) (HPC)): 93 % of control

Compound: CCc1cccc(OC/C=C(\C)CCC2OC2(C)CC)c1 (configuration not stated)
- T/C (dose: 100.0 mg/kg/injection, schedule: Q04DX002 (ip), vehicle: saline with Tween-80): 100 % of control
- T/C (dose: 200.0 mg/kg/injection, schedule: Q04DX002 (ip), vehicle: saline with Tween-80): 100 % of control
- T/C (dose: 400.0 mg/kg/injection, schedule: Q04DX002 (ip), vehicle: saline with Tween-80): 94 % of control

Compound: Brc1ccc2c(c1)CCC2
- T/C [18]: 93 % of control
- T/C [10]: 106 % of control and 88 % of control
- T/C [11]: 94 % of control and 95 % of control
- T/C [12]: 97 % of control and 98 % of control

Compound: C[n+]1ccccc1/C=C/c1ccc(O)c(O)c1
- T/C (dose: 75.0 mg/kg/injection, schedule: Q01DX001 (ip), vehicle: saline): 96 % of control
- T/C (dose: 300.0 mg/kg/injection, schedule: Q01DX001 (ip), vehicle: saline): 102 % of control

Compound: CN=C(NC)c1ccc(NC(=O)CCc2ccc(C(=O)Nc3ccc(C(=NC)NC)cc3)cc2)cc1
- T/C (dose: 0.75 mg/kg/injection, schedule: Q01DX Z (ip), vehicle: carboxymethylcellulose (CMC)): 94 % of control
- T/C (dose: 1.5 mg/kg/injection, schedule: Q01DX Z (ip), vehicle: carboxymethylcellulose (CMC)): 90 % of control
- T/C (dose: 3.0 mg/kg/injection, schedule: Q01DX Z (ip), vehicle: carboxymethylcellulose (CMC)): 93 % of control
- T/C (dose: 6.0 mg/kg/injection, schedule: Q01DX Z (ip), vehicle: carboxymethylcellulose (CMC)): 113 % of control
- T/C (dose: 10.5 mg/kg/injection, schedule: Q01DX Z (ip), vehicle: carboxymethylcellulose (CMC)): 168 % of control
- T/C (dose: 50.0 mg/kg/injection, schedule: Q01DX Z (oral), vehicle: carboxymethylcellulose (CMC)): 101 % of control
- T/C (dose: 100.0 mg/kg/injection, schedule: Q01DX Z (oral), vehicle: carboxymethylcellulose (CMC)): 105 % of control
- T/C (dose: 200.0 mg/kg/injection, schedule: Q01DX Z (oral), vehicle: carboxymethylcellulose (CMC)): 103 % of control
- T/C (dose: 400.0 mg/kg/injection, schedule: Q01DX Z (oral), vehicle: carboxymethylcellulose (CMC)): 94 % of control

Compound: O=S(=O)(Nc1cc2c(nc3ccccn32)c2ccccc12)c1ccccc1
- T/C [18]: 103 % of control

Compound: Cc1ccc(S(=O)N(OCc2ccccc2)S(=O)c2ccc(C)cc2)cc1 (configuration not stated)
- T/C (dose: 100.0 mg/kg/injection, schedule: Q04DX002 (ip), vehicle: other): 100 % of control
- T/C (dose: 200.0 mg/kg/injection, schedule: Q04DX002 (ip), vehicle: other): 100 % of control
- T/C (dose: 400.0 mg/kg/injection, schedule: Q04DX002 (ip), vehicle: other): 100 % of control

Compound: O=C1CC(=O)N2CCCCC2N1 (configuration not stated)
- T/C (dose: 100.0 mg/kg/injection, schedule: Q01DX001 (ip), vehicle: alcohol): 106 % of control
- T/C (dose: 200.0 mg/kg/injection, schedule: Q01DX001 (ip), vehicle: alcohol): 103 % of control
- T/C (dose: 400.0 mg/kg/injection, schedule: Q01DX001 (ip), vehicle: alcohol): 110 % of control

Compound: c1ccc([Si](c2ccccc2)(c2ccccc2)c2ccc([Si](c3ccccc3)(c3ccccc3)c3ccccc3)cc2)cc1
- T/C [13]: 95 % of control
- T/C (dose: 100.0 mg/kg/injection, schedule: Q04DX003 (ip), vehicle: saline with Tween-80): 103 % of control
- T/C [14]: 92 % of control
- T/C (dose: 200.0 mg/kg/injection, schedule: Q04DX003 (ip), vehicle: saline with Tween-80): 90 % of control
- T/C [15]: 90 % of control
- T/C (dose: 400.0 mg/kg/injection, schedule: Q04DX003 (ip), vehicle: saline with Tween-80): 106 % of control
